Assay results reported in patent publication US7167801B2, “Method of identifying potential inhibitors of human papillomavirus protein E2 using x-ray atomic coordinates” (Boehringer Ingelheim (Canada) Ltd., priority 2001, dated 2007).

Columns and labels:
[1] = target: T1, SV40 T Antigen (TAg)-origin complex (Simian virus 40, UniProt P03070); experiment: SV40 T Antigen-DNA binding assay (counterscreen); type: biochemical; details: assay of Example 7, counterscreen
T1 construct: The Large T Antigen: Purchased from Chimerx, at 2.0 mg/mL; purchased Chimerx
T1 sequence (P03070 whole entry, one chain of several): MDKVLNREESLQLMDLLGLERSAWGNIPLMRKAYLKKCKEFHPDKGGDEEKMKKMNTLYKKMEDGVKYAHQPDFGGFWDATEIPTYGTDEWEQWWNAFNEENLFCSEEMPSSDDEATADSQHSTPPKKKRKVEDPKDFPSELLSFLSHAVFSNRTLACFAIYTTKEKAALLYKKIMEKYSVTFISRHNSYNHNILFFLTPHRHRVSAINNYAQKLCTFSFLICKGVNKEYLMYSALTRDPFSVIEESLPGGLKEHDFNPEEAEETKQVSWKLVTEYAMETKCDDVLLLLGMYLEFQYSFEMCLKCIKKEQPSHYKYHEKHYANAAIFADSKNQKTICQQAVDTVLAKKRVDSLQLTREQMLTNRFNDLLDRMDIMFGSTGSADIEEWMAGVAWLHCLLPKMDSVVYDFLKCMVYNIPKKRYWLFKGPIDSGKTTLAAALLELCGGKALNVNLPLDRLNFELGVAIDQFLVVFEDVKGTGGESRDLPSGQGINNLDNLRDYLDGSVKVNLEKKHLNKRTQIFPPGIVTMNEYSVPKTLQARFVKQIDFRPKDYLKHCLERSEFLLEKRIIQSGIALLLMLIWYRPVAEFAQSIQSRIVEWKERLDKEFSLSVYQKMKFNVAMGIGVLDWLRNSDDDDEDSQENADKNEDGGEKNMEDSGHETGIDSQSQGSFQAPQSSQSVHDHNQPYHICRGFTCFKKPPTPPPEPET
From the text: SV40 T Antigen-DNA Binding Assay
This assay measures the formation of an SV40 T Antigen (TAg)-origin complex. The assay was developed by R. D. G. McKay (J. Mol. Biol. (1981) 145, 471–488). In principle, it is very similar to the E2-dependent E1-DNA binding assay (Example 6), with TAg replacing E1 and E2, and a radiolabeled SV40 ori probe replacing the HPV ori probe. The assay is used as a counterscreen for the assay of Example 6, since TAg shares functional homology to E1 and E2, but has very low sequence similarity.
The radiolabeled ori-containing DNA probe was made by PCR using pCH110 plasmid (Pharmacia) as a template. This template encodes the SV40 minimal origin of replication at nucleotides 7098-7023. Primers were “sv40-6958sens”=5′-GCCCCTAACTCCGCCCATCCCGC (SEQ ID NO. 7), and “sv40-206anti”=5′-ACCAGACCGCCACGGCTTACGGC (SEQ ID NO. 8). The PCR product was approximately 370 base pairs long and was radiolabeled using 50 μCi/100 μL PCR reaction of dCTP (α-^33P). […]
The protein-DNA complexes were immunocaptured using an α-TAg monoclonal antibody (PAb 101, subtype IgG2a, hybridoma obtained from ATCC and antibody purified in-house) bound to protein A-SPA beads. […] The plates were spun briefly and the precipitated radiolabeled DNA fragments were counted on a TopCount® counter.

[2] = target: HPV-11 E2 (E2-dependent binding of E1 to the HPV-11 origin of replication) (Human papillomavirus 11, UniProt P04015); experiment: E2-dependent E1 origin-binding assay; type: biochemical; details: assay of Example 6; read-out: IC50 (inhibitory activity)
HPV-11 E2 (E2-dependent binding of E1 to the HPV-11 origin of replication), sequence (P04015 whole entry): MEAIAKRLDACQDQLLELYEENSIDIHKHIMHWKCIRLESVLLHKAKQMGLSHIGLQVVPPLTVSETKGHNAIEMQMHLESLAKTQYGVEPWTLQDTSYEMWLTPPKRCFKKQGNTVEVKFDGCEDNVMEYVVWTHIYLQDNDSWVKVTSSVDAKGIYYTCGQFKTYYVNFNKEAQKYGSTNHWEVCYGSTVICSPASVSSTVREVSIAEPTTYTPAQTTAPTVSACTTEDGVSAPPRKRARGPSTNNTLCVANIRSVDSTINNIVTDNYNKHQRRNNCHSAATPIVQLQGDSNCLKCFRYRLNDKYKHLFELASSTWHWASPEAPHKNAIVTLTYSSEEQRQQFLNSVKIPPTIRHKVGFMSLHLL
From the text: E2-Dependent E1 Origin-Binding Assay
This assay was modeled on a similar assay for SV40 T Antigen described by McKay (J. Mol. Biol., 1981,145:471). A 400 bp radiolabeled DNA probe, containing the HPV-11 origin of replication (Chiang et al., 1992, Proc. Natl. Acad. Sci. USA 89:5799) was produced by PCR, using plasmid pBluescript™ SK encoding the origin (nucleotides 7886-61 of the HPV-11 genome in unique BAMH1 site) as template and primers flanking the origin. Radiolabel was incorporated as [^33P]dCTP. Binding assay buffer consisted of: 20 mM Tris pH 7.6, 100 mM NaCl, 1 mM DTT, 1 mM EDTA.
Other reagents used were protein A-SPA beads (type II, Amersham) and K72 rabbit polyclonal antiserum, raised against a peptide corresponding to the C-terminal 14 amino acids of HPV-11 E1. Following the protocol from Amersham, one bottle of beads was mixed with 25 mL of binding assay buffer. For the assay, a saturating amount of K72 antiserum was added to the beads and the mixture was incubated for 1 h, washed with one volume of binding assay buffer, and then resuspended in the same volume of fresh binding assay buffer. […] After an additional hour of incubation at room temperature, the reactions were centrifuged briefly to pellet the beads and the extent of complex formation was determined by scintillation counting on a Packard TopCount™. […]

For `Cc1ccc2c(c1)C(=O)[C@]1(O[C@@H](c3ccc(Cl)c(Cl)c3)[C@@H](C(=O)Nc3ccc(-c4csnn4)cc3)[C@H]1C(=O)[O-])C2=O.[Na+]` (racemic) [Compound L], which “Selectivity: activity in the SV40 large T antigen assay” value [1] is on record?
Its value is “lack of activity (or lower potency)”.

What about the IC50 [2] of the same compound?
The IC50 was 180 nM.
